# Experimental data as given in patent US20130267484A1, “TREATMENT OF RHEUMATOID ARTHRITIS WITH MASITINIB” (AB SCIENCE, priority 2010, published 2013).
# Like-named read-outs stand apart in the source and are kept apart here.
# How the values were obtained:
# c-kit = conditions: cited from earlier work
# Lyn = Lyn (Homo sapiens, UniProt P07948); conditions: cited from earlier work
# [1] = tested on: cell lines dependent on c-Kit signaling; conditions: cited from earlier work
# human cord blood MCs = conditions: cited from earlier work
# [2] = tested on: DMARD-refractory active RA; experiment: Study of masitinib in combination with MTX in DMARD-refractory active RA; assay type: in vivo, Human
# Protocol: A smaller second study was also conducted to evaluate the safety and efficacy of masitinib in combination with MTX in the treatment of DMARD-refractory active RA. […] (1) MTX; (2) any DMARD including anti-TNFα if patients previously failed MTX; or (3) MTX in combination with any DMARD including anti-TNFα.
# PDGFR = conditions: cited from earlier work
# ABL = ABL (Homo sapiens, UniProt P00519); conditions: at therapeutic doses; cited from earlier work
# Chain of ABL (P00519 whole entry): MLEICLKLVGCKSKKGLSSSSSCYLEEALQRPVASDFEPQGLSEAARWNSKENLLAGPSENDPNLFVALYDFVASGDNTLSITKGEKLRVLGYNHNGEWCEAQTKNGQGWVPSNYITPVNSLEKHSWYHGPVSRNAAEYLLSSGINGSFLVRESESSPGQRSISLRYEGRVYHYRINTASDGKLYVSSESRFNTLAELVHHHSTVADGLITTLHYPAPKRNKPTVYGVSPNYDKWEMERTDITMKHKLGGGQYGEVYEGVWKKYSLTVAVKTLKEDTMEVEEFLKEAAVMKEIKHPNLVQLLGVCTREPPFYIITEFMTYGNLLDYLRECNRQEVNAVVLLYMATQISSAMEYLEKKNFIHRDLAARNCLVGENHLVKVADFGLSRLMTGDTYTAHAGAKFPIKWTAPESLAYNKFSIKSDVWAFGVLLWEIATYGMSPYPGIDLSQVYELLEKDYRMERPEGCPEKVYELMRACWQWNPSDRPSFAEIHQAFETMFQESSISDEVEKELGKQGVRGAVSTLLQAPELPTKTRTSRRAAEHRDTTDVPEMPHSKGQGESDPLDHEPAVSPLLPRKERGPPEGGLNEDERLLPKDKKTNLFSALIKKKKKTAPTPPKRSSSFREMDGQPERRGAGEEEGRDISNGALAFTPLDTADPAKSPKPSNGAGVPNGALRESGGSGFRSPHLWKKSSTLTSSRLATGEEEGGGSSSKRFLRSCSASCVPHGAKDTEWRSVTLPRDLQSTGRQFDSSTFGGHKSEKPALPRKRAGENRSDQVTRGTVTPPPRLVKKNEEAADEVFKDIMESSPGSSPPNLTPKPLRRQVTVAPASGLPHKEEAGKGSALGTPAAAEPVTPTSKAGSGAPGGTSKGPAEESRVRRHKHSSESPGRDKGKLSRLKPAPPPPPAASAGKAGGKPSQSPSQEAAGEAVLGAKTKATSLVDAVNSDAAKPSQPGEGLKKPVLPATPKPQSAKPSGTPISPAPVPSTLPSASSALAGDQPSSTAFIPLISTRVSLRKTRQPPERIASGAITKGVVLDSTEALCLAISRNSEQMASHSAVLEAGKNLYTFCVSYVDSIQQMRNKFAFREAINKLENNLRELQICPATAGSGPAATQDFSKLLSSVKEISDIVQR
# [3] = week 12, total ITT population (n=8)
# 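For ALAT in the patient with hepatic disorder in this document: Open-label phase 2a trial, oral dosing twice daily, incidence of drug-related AEs (>4%) by intensity per Common Toxicity Criteria v3.0, initial 12-week and extension phases.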
# 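For ASAT in the patient with hepatic disorder in this document: Open-label phase 2a trial, oral dosing twice daily, incidence of drug-related AEs (>4%) by intensity per Common Toxicity Criteria v3.0, initial 12-week and extension phases.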
# 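For Treatment time to occurrence of severe transaminases increase AE in this document: Open-label phase 2a trial, oral dosing twice daily, incidence of drug-related AEs (>4%) by intensity per Common Toxicity Criteria v3.0, initial 12-week and extension phases.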
# 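For alkaline phosphatase in the patient with hepatic disorder in this document: Open-label phase 2a trial, oral dosing twice daily, incidence of drug-related AEs (>4%) by intensity per Common Toxicity Criteria v3.0, initial 12-week and extension phases.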
# Protocol for adults with active RA: Safety was assessed by occurrence of adverse events (AE), SAEs, and monitoring biochemical, haematological and urinalysis parameters during the study period, with toxicity graded according to the Common Toxicity Criteria version 3.0.
# Chain of Lyn (P07948 whole entry): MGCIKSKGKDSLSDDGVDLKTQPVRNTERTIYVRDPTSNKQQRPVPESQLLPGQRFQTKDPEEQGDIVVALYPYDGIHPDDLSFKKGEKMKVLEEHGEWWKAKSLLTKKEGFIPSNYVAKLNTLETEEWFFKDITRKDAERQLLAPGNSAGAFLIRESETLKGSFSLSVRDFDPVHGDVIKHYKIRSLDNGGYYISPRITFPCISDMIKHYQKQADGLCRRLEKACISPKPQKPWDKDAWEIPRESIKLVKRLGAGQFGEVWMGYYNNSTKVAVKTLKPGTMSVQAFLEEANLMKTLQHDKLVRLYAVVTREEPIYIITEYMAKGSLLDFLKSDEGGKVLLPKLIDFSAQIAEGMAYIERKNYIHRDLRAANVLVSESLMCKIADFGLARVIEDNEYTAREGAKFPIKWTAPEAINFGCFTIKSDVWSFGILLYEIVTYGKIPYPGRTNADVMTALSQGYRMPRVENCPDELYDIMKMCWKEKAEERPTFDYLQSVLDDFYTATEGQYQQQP
structure (smiles),measurement,setting,value
"Cc1ccc(NC(=O)c2ccc(CN3CCN(C)CC3)cc2)cc1Nc1nc(-c2cccnc2)cs1 [masitinib, 4-(4-methylpiperazin-1-ylmethyl)-N-[4-methyl-3-(4-pyridin-3ylthiazol-2-ylamino)phenyl]benzamide]",Effect on wild-type and juxtamembrane-mutated c-Kit receptors,c-kit,strong inhibitory effect
same,Inhibition of c-kit,c-kit,selectively inhibiting
same,Inhibition of Lyn,Lyn,selectively inhibiting
same,Effect on cell lines dependent on c-Kit signaling,[1],cell cycle arrest and apoptosis
same,FcεRI-mediated degranulation,human cord blood MCs,inhibition
same,Patients achieving ACR70 at week 4 maintained up to week 12,"[2]; 6 mg/kg/day, had failed anti-TNFα",One
same,Patients achieving ACR20 at week 8 through 12,[2]; 3 of 8 patients evaluable,One
same,Patients reaching ACR20 at week 12,[2]; 3 of 8 patients evaluable,One
same,Patients with CRP score improvement of between 25 and 50%,[2]; week 12,two
same,Patients with CRP improvement greater than 50%,"[2]; week 12, 6 mg/kg/day",one
same,Asthenia assessment change (mean),[2]; [3],−19.6%
same,HAQ assessment improvement,[2]; [3],29.5%
same,Hamilton Score improvement,[2]; [3],75.7%
same,Improvement of general patient health,[2]; [3],+92.2%
same,Mean FIS Physical and Social score,[2]; [3],slightly decreased
same,Pain assessment change (mean),[2]; [3],−72.2%
same,Inhibition of PDGFR,PDGFR,selectively inhibiting
same,Inhibition of ABL,ABL,without inhibiting
same,ALAT in the patient with hepatic disorder,"adults with active RA; 6 mg/kg/day, one patient",188
same,ASAT in the patient with hepatic disorder,"adults with active RA; 6 mg/kg/day, one patient",122
same,Treatment time to occurrence of severe transaminases increase AE,"adults with active RA; 6 mg/kg/day, one patient",14 days
same,alkaline phosphatase in the patient with hepatic disorder,"adults with active RA; 6 mg/kg/day, one patient",635
same,Suspected AE: Aphthous Stomatitis,"adults with active RA; Extension phase, All (n = 21)",1 (4.8%)
same,Suspected AE: Asthenia,"adults with active RA; Extension phase, All (n = 21)",1 (4.8%)
same,Suspected AE: Bronchopneumopathy,"adults with active RA; Extension phase, All (n = 21)",1 (4.8%)
same,Suspected AE: Eczema,"adults with active RA; Extension phase, All (n = 21)",1 (4.8%)
same,Suspected AE: Edema - All,"adults with active RA; Extension phase, All (n = 21)",2 (9.5%)
same,Suspected AE: Gastroenteritis,"adults with active RA; Extension phase, All (n = 21)",1 (4.8%)
same,Suspected AE: Leukopenia,"adults with active RA; Extension phase, All (n = 21)",1 (4.8%)
same,Suspected AE: Liver Disorder,"adults with active RA; Extension phase, All (n = 21)",1 (4.8%)
same,Suspected AE: Nasopharyngitis,"adults with active RA; Extension phase, All (n = 21)",1 (4.8%)
same,Suspected AE: Neutrophil Count Decreased,"adults with active RA; Extension phase, All (n = 21)",1 (4.8%)
same,Suspected AE: Onychoclasis,"adults with active RA; Extension phase, All (n = 21)",1 (4.8%)
same,Suspected AE: Photosensitivity Reaction,"adults with active RA; Extension phase, All (n = 21)",1 (4.8%)
same,Suspected AE: Pleural Effusion,"adults with active RA; Extension phase, All (n = 21)",1 (4.8%)
same,Suspected AE: Pyrexia,"adults with active RA; Extension phase, All (n = 21)",1 (4.8%)
same,Suspected AE: Rheumatoid Arthritis,"adults with active RA; Extension phase, All (n = 21)",1 (4.8%)
same,Suspected AE: Rhinitis,"adults with active RA; Extension phase, All (n = 21)",1 (4.8%)
same,Suspected AE: Vertigo,"adults with active RA; Extension phase, All (n = 21)",1 (4.8%)
same,Subjects with At least one suspected AE,"adults with active RA; Extension phase, Mild",4 (19.0%)
same,Suspected AE: Aphthous Stomatitis,"adults with active RA; Extension phase, Mild",1 (4.8%)
same,Suspected AE: Asthenia,"adults with active RA; Extension phase, Mild",1 (4.8%)
same,Suspected AE: Eczema,"adults with active RA; Extension phase, Mild",1 (4.8%)
same,Suspected AE: Gastroenteritis,"adults with active RA; Extension phase, Mild",1 (4.8%)
same,Suspected AE: Nasopharyngitis,"adults with active RA; Extension phase, Mild",1 (4.8%)
same,Suspected AE: Neutrophil Count Decreased,"adults with active RA; Extension phase, Mild",1 (4.8%)
same,Suspected AE: Onychoclasis,"adults with active RA; Extension phase, Mild",1 (4.8%)
same,Suspected AE: Photosensitivity Reaction,"adults with active RA; Extension phase, Mild",1 (4.8%)
same,Suspected AE: Pyrexia,"adults with active RA; Extension phase, Mild",1 (4.8%)
same,Suspected AE: Rhinitis,"adults with active RA; Extension phase, Mild",1 (4.8%)
same,Subjects with At least one suspected AE,"adults with active RA; Extension phase, Moderate",3 (14.3%)
same,Suspected AE: Edema - All,"adults with active RA; Extension phase, Moderate",2 (9.5%)
same,Suspected AE: Leukopenia,"adults with active RA; Extension phase, Moderate",1 (4.8%)
same,Suspected AE: Vertigo,"adults with active RA; Extension phase, Moderate",1 (4.8%)
same,Suspected AE: Bronchopneumopathy,"adults with active RA; Extension phase, Severe",1 (4.8%)
same,Suspected AE: Liver Disorder,"adults with active RA; Extension phase, Severe",1 (4.8%)
same,Suspected AE: Pleural Effusion,"adults with active RA; Extension phase, Severe",1 (4.8%)
same,Suspected AE: Rheumatoid Arthritis,"adults with active RA; Extension phase, Severe",1 (4.8%)
same,Suspected AE: Abdominal Pain,"adults with active RA; Initial Phase, All (n = 43)",2 (4.7%)
same,Suspected AE: Abdominal Pain Upper,"adults with active RA; Initial Phase, All (n = 43)",5 (11.6%)
same,Suspected AE: Alopecia,"adults with active RA; Initial Phase, All (n = 43)",2 (4.7%)
same,Suspected AE: Asthenia,"adults with active RA; Initial Phase, All (n = 43)",5 (11.6%)
same,Suspected AE: Blood Creatinine Increased,"adults with active RA; Initial Phase, All (n = 43)",2 (4.7%)
same,Suspected AE: Cough,"adults with active RA; Initial Phase, All (n = 43)",2 (4.7%)
same,Suspected AE: Diarrhea,"adults with active RA; Initial Phase, All (n = 43)",8 (18.6%)
same,Suspected AE: Dry Mouth,"adults with active RA; Initial Phase, All (n = 43)",2 (4.7%)
same,Suspected AE: Dyspnoea,"adults with active RA; Initial Phase, All (n = 43)",3 (7.0%)
same,Suspected AE: Edema - All,"adults with active RA; Initial Phase, All (n = 43)",11 (25.6%)
same,Suspected AE: Gastroenteritis,"adults with active RA; Initial Phase, All (n = 43)",2 (4.7%)
same,Suspected AE: Headache,"adults with active RA; Initial Phase, All (n = 43)",6 (14.0%)
same,Suspected AE: Herpes Simplex,"adults with active RA; Initial Phase, All (n = 43)",3 (7.0%)
same,Suspected AE: Hyperthermia,"adults with active RA; Initial Phase, All (n = 43)",2 (4.7%)
same,Suspected AE: Nausea,"adults with active RA; Initial Phase, All (n = 43)",10 (23.3%)
same,Suspected AE: Petechiae,"adults with active RA; Initial Phase, All (n = 43)",2 (4.7%)
same,Suspected AE: Pyrexia,"adults with active RA; Initial Phase, All (n = 43)",3 (7.0%)
same,Suspected AE: Rash - All,"adults with active RA; Initial Phase, All (n = 43)",13 (30.2%)
same,Suspected AE: Vomiting,"adults with active RA; Initial Phase, All (n = 43)",5 (11.6%)
same,Suspected AE: Weight Decreased,"adults with active RA; Initial Phase, All (n = 43)",3 (7.0%)
same,Subjects with At least one suspected AE,"adults with active RA; Initial Phase, Mild",29 (67.4%)
same,Suspected AE: Abdominal Pain,"adults with active RA; Initial Phase, Mild",1 (2.3%)
same,Suspected AE: Abdominal Pain Upper,"adults with active RA; Initial Phase, Mild",4 (9.3%)
same,Suspected AE: Alopecia,"adults with active RA; Initial Phase, Mild",2 (4.7%)
same,Suspected AE: Blood Creatinine Increased,"adults with active RA; Initial Phase, Mild",1 (2.3%)
same,Suspected AE: Cough,"adults with active RA; Initial Phase, Mild",1 (2.3%)
same,Suspected AE: Diarrhea,"adults with active RA; Initial Phase, Mild",5 (11.6%)
same,Suspected AE: Dry Mouth,"adults with active RA; Initial Phase, Mild",1 (2.3%)
same,Suspected AE: Dyspnoea,"adults with active RA; Initial Phase, Mild",1 (2.3%)
same,Suspected AE: Edema - All,"adults with active RA; Initial Phase, Mild",2 (4.7%)
same,Suspected AE: Headache,"adults with active RA; Initial Phase, Mild",4 (9.3%)
same,Suspected AE: Herpes Simplex,"adults with active RA; Initial Phase, Mild",2 (4.7%)
same,Suspected AE: Nausea,"adults with active RA; Initial Phase, Mild",6 (14.0%)
same,Suspected AE: Petechiae,"adults with active RA; Initial Phase, Mild",1 (2.3%)
same,Suspected AE: Pyrexia,"adults with active RA; Initial Phase, Mild",1 (2.3%)
same,Suspected AE: Rash - All,"adults with active RA; Initial Phase, Mild",7 (16.3%)
same,Suspected AE: Vomiting,"adults with active RA; Initial Phase, Mild",1 (2.3%)
same,Suspected AE: Weight Decreased,"adults with active RA; Initial Phase, Mild",2 (4.7%)
same,Subjects with At least one suspected AE,"adults with active RA; Initial Phase, Moderate",27 (62.8%)
same,Suspected AE: Abdominal Pain Upper,"adults with active RA; Initial Phase, Moderate",1 (2.3%)
same,Suspected AE: Asthenia,"adults with active RA; Initial Phase, Moderate",4 (9.3%)
same,Suspected AE: Blood Creatinine Increased,"adults with active RA; Initial Phase, Moderate",1 (2.3%)
same,Suspected AE: Cough,"adults with active RA; Initial Phase, Moderate",1 (2.3%)
same,Suspected AE: Diarrhea,"adults with active RA; Initial Phase, Moderate",2 (4.7%)
same,Suspected AE: Dyspnoea,"adults with active RA; Initial Phase, Moderate",1 (2.3%)
same,Suspected AE: Edema - All,"adults with active RA; Initial Phase, Moderate",6 (14.0%)
same,Suspected AE: Gastroenteritis,"adults with active RA; Initial Phase, Moderate",2 (4.7%)
same,Suspected AE: Headache,"adults with active RA; Initial Phase, Moderate",2 (4.7%)
same,Suspected AE: Herpes Simplex,"adults with active RA; Initial Phase, Moderate",1 (2.3%)
same,Suspected AE: Hyperthermia,"adults with active RA; Initial Phase, Moderate",1 (2.3%)
same,Suspected AE: Nausea,"adults with active RA; Initial Phase, Moderate",5 (11.6%)
same,Suspected AE: Petechiae,"adults with active RA; Initial Phase, Moderate",1 (2.3%)
same,Suspected AE: Pyrexia,"adults with active RA; Initial Phase, Moderate",1 (2.3%)
same,Suspected AE: Rash - All,"adults with active RA; Initial Phase, Moderate",8 (18.6%)
same,Suspected AE: Vomiting,"adults with active RA; Initial Phase, Moderate",4 (9.3%)
same,Suspected AE: Weight Decreased,"adults with active RA; Initial Phase, Moderate",1 (2.3%)
same,Suspected AE: Abdominal Pain,"adults with active RA; Initial Phase, Severe",1 (2.3%)
same,Suspected AE: Asthenia,"adults with active RA; Initial Phase, Severe",1 (2.3%)
same,Suspected AE: Diarrhea,"adults with active RA; Initial Phase, Severe",1 (2.3%)
same,Suspected AE: Dry Mouth,"adults with active RA; Initial Phase, Severe",1 (2.3%)
same,Suspected AE: Dyspnoea,"adults with active RA; Initial Phase, Severe",1 (2.3%)
same,Suspected AE: Edema - All,"adults with active RA; Initial Phase, Severe",3 (7.0%)
same,Suspected AE: Hyperthermia,"adults with active RA; Initial Phase, Severe",1 (2.3%)
same,Suspected AE: Pyrexia,"adults with active RA; Initial Phase, Severe",1 (2.3%)
same,Early study discontinuation: Adverse event,"adults with active RA; Total population, of 16 discontinued",13/16
same,Median onset time of edematous episodes,adults with active RA; after first drug intake or dose increase,28 days
same,"Incidence of skin rash, nausea, vomiting or diarrhea","adults with active RA; after week 12 (extension phase, n = 21)",no incidence
same,Decrease in occurrence of edema,adults with active RA; extension phase versus initial phase,> 60%
same,Average time within which edematous episodes abated,"adults with active RA; human, in vivo",≤ 16 days
same,Doses associated with the majority of severe AEs,adults with active RA; in vivo,≥ 7.5 mg/kg/day
same,Early study discontinuation: Adverse event,"adults with active RA; initial dosage 3 mg/kg/day, of 7 discontinued",6/7
same,Early study discontinuation: Adverse event,"adults with active RA; initial dosage 6 mg/kg/day, of 9 discontinued",7/9
same,Patients discontinuing treatment with occurrence of AEs as main reason,"adults with active RA; initial phase, of 43 patients",30%
same,Deaths during the study,adults with active RA; n = 43,no deaths occurred
same,Patients with non-fatal SAE of severe intensity suspected to be related to masitinib (or not assessable),"adults with active RA; n = 43, skin rash, pleural effusion, pneumonia, RA flare up",9%
same,Time to resolution of severe transaminases increase AE after drug withdrawal,"adults with active RA; one patient, no reoccurrence following reintroduction",≤ 4 weeks
